Experiments:
Cytochrome P450 2D6 = Cytochrome P450 2D6 (Homo sapiens, UniProt P10635); experiment: Inhibition of CYP2D6 in human liver microsomes using fluorogenic substrate preincubated for 15 min followed by NADPH addition measured after 2 hrs by fluorescence based assay; format: ADME, Microsome
[1] = biological target: T1, Solute carrier organic anion transporter family member 1B3 (Homo sapiens, UniProt Q9NPD5); experiment: Inhibition of OATP1B3 (unknown origin)
T1 sequence (Q9NPD5 whole entry): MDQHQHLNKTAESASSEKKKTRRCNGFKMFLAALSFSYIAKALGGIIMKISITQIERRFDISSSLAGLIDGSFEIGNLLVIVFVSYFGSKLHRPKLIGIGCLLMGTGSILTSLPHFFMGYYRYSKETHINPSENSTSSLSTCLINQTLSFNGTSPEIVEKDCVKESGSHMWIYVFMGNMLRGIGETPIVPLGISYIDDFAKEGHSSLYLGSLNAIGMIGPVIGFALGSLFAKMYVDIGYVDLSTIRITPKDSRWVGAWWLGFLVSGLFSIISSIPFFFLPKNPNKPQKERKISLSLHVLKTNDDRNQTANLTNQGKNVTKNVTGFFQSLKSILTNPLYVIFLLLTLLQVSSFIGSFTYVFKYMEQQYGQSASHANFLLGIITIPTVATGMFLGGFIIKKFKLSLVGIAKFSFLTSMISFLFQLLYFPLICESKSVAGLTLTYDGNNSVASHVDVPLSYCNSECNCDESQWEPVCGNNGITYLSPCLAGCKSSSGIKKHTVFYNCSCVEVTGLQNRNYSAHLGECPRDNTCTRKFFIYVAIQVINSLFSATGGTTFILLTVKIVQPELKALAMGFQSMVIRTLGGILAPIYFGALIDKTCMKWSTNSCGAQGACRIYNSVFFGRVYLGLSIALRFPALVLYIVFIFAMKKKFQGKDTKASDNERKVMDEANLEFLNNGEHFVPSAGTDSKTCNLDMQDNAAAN

[2] = AUC (total) in C57BL6 mouse at 1 mg/kg, iv; format: ADME, organism-based; design: dose 1 mg/kg, route iv; conditions: in vivo
Cytochrome P450 2C19 = Cytochrome P450 2C19 (Homo sapiens, UniProt P33261); experiment: Inhibition of recombinant CYP2C19 (unknown origin) using fluorogenic substrate preincubated for 15 min followed by NADPH addition measured after 2 hrs by fluorescence method; format: ADME
[3] = system: Bile acid receptor (Homo sapiens); experiment: Agonist activity at human FXR expressed in HEK293 cells coexpressing IBABP relative to GW2064; conditions: filed as agonist
[4] = Oral bioavailability in C57BL6 mouse at 5 mg/kg; format: ADME, organism-based; conditions: in vivo
Mus musculus = experiment: Antifibrotic activity against bile duct ligation-induced liver cholestasis C57BL/6NTac mouse model assessed as reduction in hydroxyproline level in liver administered orally as single dose for 9 days and measured after 24 hrs post-last dose by picrosirius red staining method; format: functional, organism-based; conditions: dose 0.3-10 mg/kg, route po, time 9.0 day, DDE = dose-dependent effect
Cytochrome P450 2C9 = Cytochrome P450 2C9 (Homo sapiens, UniProt P11712); experiment: Inhibition of recombinant CYP2C9 (unknown origin) using fluorogenic substrate preincubated for 15 min followed by NADPH addition measured after 2 hrs by fluorescence method; format: ADME
[5] = Half life in Sprague-Dawley rat at 1 mg/kg, iv; format: ADME, organism-based; conditions: in vivo
Cytochrome P450 2C8 = biological target: T2, Cytochrome P450 2C8 (Homo sapiens, UniProt P10632); experiment: Inhibition of CYP2C8 in human liver microsomes using fluorogenic substrate preincubated for 15 min followed by NADPH addition measured after 2 hrs by fluorescence based assay; format: ADME, Microsome
T2 sequence (P10632 whole entry): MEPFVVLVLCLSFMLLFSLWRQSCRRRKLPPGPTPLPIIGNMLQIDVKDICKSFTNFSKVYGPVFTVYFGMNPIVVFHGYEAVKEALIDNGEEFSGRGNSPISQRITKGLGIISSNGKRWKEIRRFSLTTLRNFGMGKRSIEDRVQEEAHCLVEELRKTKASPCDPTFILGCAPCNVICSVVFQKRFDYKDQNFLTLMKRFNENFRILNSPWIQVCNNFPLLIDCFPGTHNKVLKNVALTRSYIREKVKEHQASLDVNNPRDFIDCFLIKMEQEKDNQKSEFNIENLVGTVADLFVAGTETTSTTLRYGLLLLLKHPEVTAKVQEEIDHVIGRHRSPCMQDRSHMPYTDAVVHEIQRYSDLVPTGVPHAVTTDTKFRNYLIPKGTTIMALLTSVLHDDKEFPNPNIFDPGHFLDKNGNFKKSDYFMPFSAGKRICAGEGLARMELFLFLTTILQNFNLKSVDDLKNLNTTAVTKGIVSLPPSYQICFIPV

[6] = AUC (total) in Sprague-Dawley rat at 1 mg/kg, iv; format: ADME, organism-based; design: dose 1 mg/kg, route iv; conditions: in vivo
[7] = Genotoxicity in Salmonella typhimurium by Ames test; format: toxicity; conditions: salmonella enterica subsp. enterica serovar typhimurium
Bile acid receptor = biological target: T3, Bile acid receptor (Homo sapiens, UniProt Q96RI1); experiment: Agonist activity at Gal4-fused human FXR in HEK293 cells incubated for 15 min by luciferase reporter assay; format: cell-based
T3 sequence (Q96RI1 whole entry): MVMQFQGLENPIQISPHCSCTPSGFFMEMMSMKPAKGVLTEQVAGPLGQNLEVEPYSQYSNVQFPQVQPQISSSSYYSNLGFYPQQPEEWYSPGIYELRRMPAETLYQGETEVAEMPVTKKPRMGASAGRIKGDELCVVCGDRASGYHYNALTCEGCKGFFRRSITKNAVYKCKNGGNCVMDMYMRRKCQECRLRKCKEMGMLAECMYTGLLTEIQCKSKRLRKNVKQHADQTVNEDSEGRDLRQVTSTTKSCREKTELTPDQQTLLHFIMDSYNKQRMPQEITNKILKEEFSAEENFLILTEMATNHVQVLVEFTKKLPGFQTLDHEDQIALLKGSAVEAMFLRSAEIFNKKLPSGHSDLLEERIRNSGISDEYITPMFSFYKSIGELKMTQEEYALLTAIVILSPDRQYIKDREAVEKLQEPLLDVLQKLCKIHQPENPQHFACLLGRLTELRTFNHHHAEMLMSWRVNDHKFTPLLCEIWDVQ

[8] = biological target: T4, Nuclear receptor subfamily 1 group I member 2 (Homo sapiens, UniProt O75469); experiment: Transactivation of PXR (unknown origin) relative to refampicin; format: ADME
T4 sequence (O75469 whole entry): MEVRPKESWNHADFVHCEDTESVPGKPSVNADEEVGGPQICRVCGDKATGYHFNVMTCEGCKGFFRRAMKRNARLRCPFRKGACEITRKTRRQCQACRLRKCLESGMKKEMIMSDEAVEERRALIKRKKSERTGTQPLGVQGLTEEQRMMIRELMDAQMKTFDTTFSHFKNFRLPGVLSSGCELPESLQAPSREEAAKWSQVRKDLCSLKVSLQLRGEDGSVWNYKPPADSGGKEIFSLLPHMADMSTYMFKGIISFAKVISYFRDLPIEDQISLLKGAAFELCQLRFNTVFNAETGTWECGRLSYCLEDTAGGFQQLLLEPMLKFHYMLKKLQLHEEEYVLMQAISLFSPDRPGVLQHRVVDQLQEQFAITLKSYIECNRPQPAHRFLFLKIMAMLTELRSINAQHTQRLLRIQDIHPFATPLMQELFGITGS

[9] = biological target: T4, Nuclear receptor subfamily 1 group I member 2; experiment: Transactivation of PXR (unknown origin); format: ADME

Sequence of Cytochrome P450 2D6 (P10635 whole entry): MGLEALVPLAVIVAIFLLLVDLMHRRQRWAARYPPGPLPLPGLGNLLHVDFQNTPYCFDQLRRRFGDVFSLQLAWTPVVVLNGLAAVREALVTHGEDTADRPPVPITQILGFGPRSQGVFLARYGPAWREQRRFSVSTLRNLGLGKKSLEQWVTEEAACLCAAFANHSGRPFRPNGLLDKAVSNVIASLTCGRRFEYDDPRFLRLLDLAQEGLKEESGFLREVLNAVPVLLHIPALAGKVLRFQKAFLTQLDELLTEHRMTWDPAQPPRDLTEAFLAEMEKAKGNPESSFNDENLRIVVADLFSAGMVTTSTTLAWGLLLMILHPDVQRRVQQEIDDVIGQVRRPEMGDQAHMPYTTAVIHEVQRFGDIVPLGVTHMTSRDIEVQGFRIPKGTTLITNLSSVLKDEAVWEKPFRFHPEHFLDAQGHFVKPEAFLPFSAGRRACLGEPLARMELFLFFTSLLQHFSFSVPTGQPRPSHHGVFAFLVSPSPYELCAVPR
Sequence of Cytochrome P450 2C9 (P11712 whole entry): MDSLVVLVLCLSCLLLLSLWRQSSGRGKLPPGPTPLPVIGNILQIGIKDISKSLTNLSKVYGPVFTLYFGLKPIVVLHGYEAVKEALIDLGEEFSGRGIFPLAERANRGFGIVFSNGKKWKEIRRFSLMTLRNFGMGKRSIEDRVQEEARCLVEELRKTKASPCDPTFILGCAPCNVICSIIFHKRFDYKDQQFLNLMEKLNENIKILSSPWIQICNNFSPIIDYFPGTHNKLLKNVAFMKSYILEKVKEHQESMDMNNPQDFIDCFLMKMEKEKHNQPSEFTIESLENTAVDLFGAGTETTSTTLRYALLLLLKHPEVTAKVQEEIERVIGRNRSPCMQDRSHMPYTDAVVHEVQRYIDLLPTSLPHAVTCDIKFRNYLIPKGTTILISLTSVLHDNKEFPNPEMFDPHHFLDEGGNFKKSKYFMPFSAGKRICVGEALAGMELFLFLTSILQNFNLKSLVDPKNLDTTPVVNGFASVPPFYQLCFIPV
Sequence of Cytochrome P450 2C19 (P33261 whole entry): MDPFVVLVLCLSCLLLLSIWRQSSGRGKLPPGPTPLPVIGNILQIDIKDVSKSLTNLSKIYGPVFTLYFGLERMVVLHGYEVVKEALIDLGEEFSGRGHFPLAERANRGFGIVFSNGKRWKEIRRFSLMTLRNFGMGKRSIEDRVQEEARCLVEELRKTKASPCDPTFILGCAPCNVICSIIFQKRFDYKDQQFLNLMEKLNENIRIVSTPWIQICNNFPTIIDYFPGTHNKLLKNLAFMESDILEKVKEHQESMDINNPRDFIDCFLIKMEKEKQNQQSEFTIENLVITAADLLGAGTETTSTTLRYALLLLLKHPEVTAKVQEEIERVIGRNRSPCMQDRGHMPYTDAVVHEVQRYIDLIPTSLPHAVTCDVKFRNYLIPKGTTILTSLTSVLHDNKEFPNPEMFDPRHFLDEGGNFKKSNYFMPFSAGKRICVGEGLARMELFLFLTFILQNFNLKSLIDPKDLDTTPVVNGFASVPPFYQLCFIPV

CC(C)(O)c1ccc(-c2cccc(N(CC34CCC(c5noc(C(C)(C)F)n5)(CC3)CC4)C(=O)[C@H]3C[C@](O)(C(F)(F)F)C3)c2)cc1
IC50 (Cytochrome P450 2D6): > 20 µM | IC50 [1]: 13.5 µM | AUC [2]: 16.4 µM·h | IC50 (Cytochrome P450 2C19): 7 µM | Emax [3]: 80% | bioavailability [4]: 69% | Activity (Mus musculus): Dde | IC50 (Cytochrome P450 2C9): 5 µM | half-life [5]: 18 h | IC50 (Cytochrome P450 2C8): > 20 µM | AUC [6]: 6.6 µM·h | Activity [7]: Non-Toxic | EC50 (Bile acid receptor): 0.034 µM | Emax [8]: 11% | EC50 [9]: 50 µM

From ChEMBL document CHEMBL5143714, “Discovery of BMS-986339, a Pharmacologically Differentiated Farnesoid X Receptor Agonist for the Treatment of Nonalcoholic Steatohepatitis” (J Med Chem, 2022)
